Data taken from PMC6889535, “Validation of Plasmodium falciparum dUTPase as the target of 5′-tritylated deoxyuridine analogues with anti-malarial activity” (Malaria Journal, 2019).

Experiments:
[1] = tested on: Plasmodium falciparum lines overexpressing PfdUTPase (PfdUTPase OE); test: IC50 shift in P. falciparum line overexpressing PfdUTPase (SYBR green assay); type: cell-based; settings: PfdUTPase overexpressing line vs parental line 3D7
Description: (§1) In vitro inhibitory activity against the erythrocytic stages of P. falciparum of overexpressing mutants was determined by using the SYBR green assay and the ^3H-hypoxanthine incorporation assay was used for IC50 determination as previously described. Plasmodium falciparum 3D7 was cultured using standard methods, and synchronized using 5% sorbitol as previously described. Compounds were dissolved in DMSO and added at different concentrations (8–500 ng/ml) to 48 h post-synchronization parasites. […] Chloroquine dissolved in water was used as standard drug. Experiments were carried out at least twice independently and the different concentrations were tested in duplicate. IC50 values were calculated using a four-parameter logistic regression model using data obtained from two or three independent experiments as indicated.
(§2) Subsequently, the IC50 for each cell line with each compound and the fold change relative to the 3D7 IC50 was calculated (Fig. 3a). […] The IC50 for chloroquine as a reference compound was also determined in overexpressing mutants.

[2] = tested on: Plasmodium falciparum lines overexpressing human dUTPase (HsdUTPase OE); test: IC50 shift in P. falciparum line overexpressing human dUTPase (SYBR green assay); type: cell-based; settings: HsdUTPase overexpressing line vs parental line 3D7
Description: as §1, §2

[3] = target: T1, PfdUTPase (Plasmodium falciparum, UniProt Q8II92); test: Inhibition of Plasmodium dUTPase (Ki); type: biochemical; settings: for Ki: average of three independent experiments ± standard errors
T1 construct: made in house
T1 sequence (Q8II92 1-173): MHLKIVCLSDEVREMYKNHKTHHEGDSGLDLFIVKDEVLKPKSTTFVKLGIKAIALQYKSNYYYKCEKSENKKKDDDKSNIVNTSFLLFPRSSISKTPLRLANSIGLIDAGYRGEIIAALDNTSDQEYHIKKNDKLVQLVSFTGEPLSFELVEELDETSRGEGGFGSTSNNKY

[4] = target: T2, HsdUTPase (Homo sapiens, UniProt P33316); test: Inhibition of human dUTPase (Ki); type: biochemical; settings: average of three independent experiments ± standard errors
T2 construct: made in house
T2 sequence (P33316 1-164 isoform P33316-2): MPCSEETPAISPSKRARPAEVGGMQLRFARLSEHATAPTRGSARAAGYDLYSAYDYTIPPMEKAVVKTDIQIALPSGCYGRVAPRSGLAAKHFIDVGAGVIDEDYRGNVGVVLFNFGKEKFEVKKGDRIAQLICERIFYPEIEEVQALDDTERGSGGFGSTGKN
Description: Table 1 Ki values for Plasmodium and human dUTPases and IC50s for intraerythrocytic stages of Plasmodium falciparum | column: Ki HsdUTPase

[5] = tested on: Plasmodium falciparum 3D7; test: In vitro inhibitory activity against erythrocytic stages of P. falciparum (3H-hypoxanthine incorporation assay); type: cell-based; settings: intraerythrocytic stages of Plasmodium falciparum; average of three independent experiments ± standard errors; read-out: IC50 Pf3D7
Description: as §1

[6] = tested on: dTTP and dUTP pools in Plasmodium cultures; test: Intracellular dTTP and dUTP levels by modified DNA polymerase assay; type: cell-based, Plasmodium falciparum; settings: schizont stage, 20 h of treatment, 1× and 3× the IC50; effect at high concentrations
Description: The effect of different dUTPase inhibitors on dUTP and dTTP levels from P. falciparum cells was measured using a modified DNA polymerase assay. The template sequence employed was the oligonucleotide 5′-[…]-3′ and as primer sequence the oligonucleotide 5′-CCGCCTCCACCGCC-3′ was used. Saponin-isolated parasite pellets (5 × 10^8 parasites per sample) were repeatedly washed in PBS and frozen at − 80 °C. Frozen pellets were extracted with 200 μl of cold methanol/water (1:1, v/v) vigorously by vortexing, freeze-thawed twice and centrifuged. Supernatants were collected and pellets were re-extracted with the same volume of methanol/water as previously mentioned and newly centrifuged. The combined supernatants were dried under vacuum. The residues were dissolved in 40 μl either of dUTPase buffer (34 mM Tris–HCl pH 7.8, 5 mM MgCl2) or dUTPase buffer plus 30 ng of HsdUTPase and incubated for 20 min at 37 °C. To stop the reaction, 60 μl of 100% methanol were added and the samples were incubated for 1 h at − 20 °C, followed by centrifugation for 20 min at 16,000×g. The supernatants were again dried under vacuum and the DNA polymerase assay used was modified from that of Horowitz et al.. The DNA polymerase I buffer contained 34 mM Tris–HCl pH 7.8, and 50 mM MgCl2. After incubation with DNA polymerase I, 30 μl of each sample were incubated for 30 min at 4 °C with 470 μl of DNA polymerase I buffer containing 10% (v/v) trichloroacetic acid to precipitate the DNA. The solution was blotted onto a glass microfibre filter GF/C (Whatman) and each filter was washed under vacuum with 30 ml of a solution of 5% (v/v) trichloroacetic acid and 3 ml of ethanol, dried and the radioactivity was counted using a LS 6500 Multi-Purpose Scintillation Counter (Beckman Coulter).
The levels of intracellular dTTP and dUTP were measured using the DNA polymerase based assay in Plasmodium cultures incubated with compounds 3 and 4. Parasites for dUTP and dTTP measurements were obtained from highly synchronized cultures in schizont stage after 20 h of treatment with concentrations of compound that corresponded with 1× and 3× the IC50 concentration.

Compound | Fold change in IC50 relative to the 3D7 IC50 [1] | Fold change in IC50 relative to the 3D7 IC50 [2] | Ki [3] [nM] | Ki [4] [nM] | IC50 [5] [nM] | dTTP pool [6] | dUTP pool [6] | Activity against the enzyme relative to compound 3 ([3]; PfdUTPase, compared with compound 3)
CCN(CC)CCCC(C)Nc1ccnc2cc(Cl)ccc12 (centres unmarked) [chloroquine, Chloroquine, reference compound] | No significant effects | No significant effects | – | – | – | – | – | –
CCOC(=O)CCCNC(=O)NCC(CCn1ccc(=O)[nH]c1=O)CNC(c1ccccc1)(c1ccccc1)c1ccccc1 (centres unmarked) [Compound 2, Ethyl 4-(3-(4-(2,4-dioxo-3,4-dihydropyrimin-1(2H)-yl)-2-((tritylamino)methyl)butyl)uredio)butanoate] | – | – | 560 ± 80 | 12200 ± 6910 | 60 ± 10 | – | – | –
O=C(Nc1ccc(C(=O)O)cc1)O[C@H]1C[C@H](n2ccc(=O)[nH]c2=O)O[C@@H]1CNC(c1ccccc1)(c1ccccc1)c1ccccc1 [Compound 3, 3’-O-(4-(carboxy)phenylurethane)-5’-N-tritylamino-2’,5’-dideoxyuridine] | 3.8 fold | 2.3 fold | 79 ± 22 | > 100000 | 120 ± 50 | significant decrease | increase | –
3- N-(4-(carboethoxy)butylurea)-5-tritylamino-2,3-dideoxy-β-D-xylofuranosyluracil [Compound 1] | – | – | 4730 ± 160 | > 100000 | 40 ± 10 | – | – | –
CCOC(=O)c1ccc(NC(=O)NCC(CCn2ccc(=O)[nH]c2=O)CNC(c2ccccc2)(c2ccccc2)c2ccccc2)cc1 (centres unmarked) [Compound 4, Ethyl 4-(3-(4-(2,4-dioxo-3,4-dihydropyrimin-1(2H)-yl)-2-((tritylamino)methyl)butyl)uredio)benzoate] | 4 fold | 2.5 fold | 610 ± 70 | > 100000 | 150 ± 30 | significant decrease | increase | eightfold less active
